Consider 10 compounds from patent US7728039B2, “Biphenyl and Naphthyl-Phenyl Hydroxamic Acid Derivatives” (Sigma-Tau Industrie Farmaceutiche Riunite S.p.A., priority 2005, dated 2010).

Where two headings read alike, the source gives them in different places.

Test [1] has as its system NB4 promyelocytic leukaemia cells. Description: Differentiation of NB4 tumour cells by nitroblue tetrazolium (NBT) reduction, with or without ATRA. The class given is cell-based, human. As to conditions: compound alone (without ATRA), 3 days, NBT-reducing activity. From the text:
Relevant aspects of the differentiation program set in motion by ATRA in APL cells can be reproduced in primary cultures of leukemic blasts and in the derived NB4 cell line, which is a unique model for the study of the pharmacologic activity of ATRA and derivatives. Pharmacological concentrations of ATRA arrest the growth of NB4 blasts and differentiate them into cells that resemble mature neutrophils. This is followed by a slow process of apoptosis. […] In particular, the differentiation of NB4 tumour cells induced by the compounds was determined by nitroblue tetrazolium (NBT) reduction. NB4 promyelocytic leukaemia cells were seeded at a density of 150000 cells/ml in RPMI 1640 medium containing 10% FCS. To measure the cytodifferentiating effect of the molecules, tumour cells were treated with the compounds at different concentrations starting from at least 0.4 μM to 0.01 μM, whereas to measure the enhancing action of the molecules of ATRA activity, NB4 cells were treated with increasing concentrations of the molecules in the presence or absence of ATRA at a suboptimal concentration (5 nM).
Tumour cells were incubated for 3 days at 37° C. without replacing the medium culture. To measure the prodifferentiative effect, 500,000 cells were collected, centrifuged and resuspended in 1 ml of RPMI 1640 medium containing 10% FCS, 1 mg/ml of nitroblue tetrazolium (NBT) and 100 ng of PMA (4-phorbol-12-myristate-13-acetate). The tumour cells resuspended were incubated at 37° C. for 60 min. At the end of the incubation, tumour cells were centrifuged and the pellet was resuspended in 1 ml of PBS containing Triton ×100 at 10%. The samples were sonicated and the absorbance was determined at 540 nm with a spectrophotometer. Differentiation of tumor cells as AC50 (activating concentration) was evaluated as the concentration of the compound giving 50% of the maximal induction of NBT-reducing activity with or without ATRA.

In test [2] the test system is NCI-H460 non-small cell carcinoma cells. The test is described as follows: Sulphorodamine B cytotoxicity test on NCI-H460 cells. The class given is cell-based. As to conditions: SRB, read-out: IC50 ± SD, NCI-H460. The method, then: The chemical structures of the tested compounds of the invention and of the corresponding compounds bearing a carboxylic acid group are reported in FIG. 1. […] NB4 and NCI-H460 tumour cells were grown in RPMI 1640 containing 10% foetal bovine serum (GIBCO), HCT-116 tumour cells were grown in McCoy's 5A containing 10% foetal bovine serum (GIBCO), IGROV-1 and IGROV-1/Pt were grown in DMEM containing 10% foetal bovine serum (GIBCO),
(§1) Tumour cells were seeded in 96-well tissue culture plates at approximately 10% confluence and were allowed to attach and recover for at least 24 h. Varying concentrations of the drugs were then added to each well to calculate their IC50 value (the concentration which inhibits the 50% of cell survival). The plates were incubated for 24 h at 37° C. At the end of the treatment, for NB4 tumour cells in suspension, the procedure was performed as follows: medium culture was removed by centrifugation of the plates at 1600×g for 10 min and the surnatant was removed. 250 μl PBS were added, then the plates were centrifuged at 1600×g for 10 min, the surnatant was removed. 200 μl/well of medium culture RPMI 1640 containing 10% FCS were added and the plates were incubated at 37° C. for other 48 h. The plates were centrifuged again at 1600×g for 10 min, the medium culture was removed and 200 μl PBS and 50 μl of cold 80% TCA were added. The plates were incubated on ice for at least 1 h. TCA was removed, the plates were washed 3 times for immersion in distilled-water and dried on paper and at 40° C. for 5 min. Then 200 μl of 0.4% sulphorodamine B in 1% acetic acid were added. The plates were incubated at room temperature for other 30 min. Sulphorodamine B was removed, the plates were washed for immersion in 1% acetic acid for 3 times, then they were dried on paper and at 40° C. for 5 min. Then 200 μl Tris 10 mM were added, the plates were kept under stirring for 20 min. The survival cell was determined as optical density by a Multiskan spectrofluorimeter at 540 nm. For the tumour cells in adhesion (NCI-H460 and HCT-116), the procedure was as above mentioned, except that at the end of the treatment, the plates were washed by remotion of the surnatant and addition of PBS 3 times without centrifugation. Also the last day of the assay, the surnatant was removed without centrifugation.
(§2) The amount of cells killed was calculated as the percentage decrease in sulphorodamine B binding compared with control cultures. The IC50 values (the concentration which inhibits the 50% of cell survival) were calculated with the “ALLFIT” program.

For test [3], the system named is NB4 human promyelocytic leukaemia. The test is described as follows: Sulphorodamine B cytotoxicity test on NB4 cells. The class given is cell-based.
Excerpt: (§3) The cytotoxic effect of some biphenyl and phenylnaphthyl compounds bearing a hydroxamic acid group is reported herein. […] The chemical structures of the tested compounds of the invention and of the corresponding compounds bearing a carboxylic acid group are reported in FIG. 1. To test the effects of the compounds on cell growth, NB4 human promyelocytic leukaemia, NCI-H460 non-small cell carcinoma cells, H460/(R9A) (resistant to carboxylic acid-bearing compounds: ST1898, ST1926, ST1964), HCT-116 human colon carcinoma cells, IGROV-1 and IGROV-1/Pt (sensitive ovarian carcinoma and platinum-resistant ovarian carcinoma cells, respectively) were used. NB4 and NCI-H460 tumour cells were grown in RPMI 1640 containing 10% foetal bovine serum (GIBCO), HCT-116 tumour cells were grown in McCoy's 5A containing 10% foetal bovine serum (GIBCO), IGROV-1 and IGROV-1/Pt were grown in DMEM containing 10% foetal bovine serum (GIBCO),
as §1, §2

Test [4] relates to NCI-H460 R9A tumour cells (H460/(R9A), resistant to carboxylic acid-bearing compounds). Description: Sulphorodamine B cytotoxicity test on ST1926-resistant NCI-H460 R9A cells. The class given is cell-based. To be noted: for IC50: Table 3, resistant NCI-H460 R9A, SRB, read-out: IC50 ± SD, NCI-H460 R9A; for RI (resistance index): IC50 on resistant tumour cell line/IC50 on sensitive tumour cell line (NCI-H460 R9A / NCI-H460); for overcoming of resistance on H460/R9A: H460/R9A versus sensitive NCI-H460, result in words.
Excerpt: as §3, §1, §2
The resistant tumour cell line NCI H460 R9A was a clone selected for the resistance to ST1926 (Table 3). To obtain the resistant tumour cell line, the sensitive NCI-H460 tumour cells were treated with 2 μM ST1926 for 24 hours and maintained in drug-free medium for a recovering time of 7 days. Then, survived cells were cultured applying a continuous selective pressure of 2 μM (10×IC50) ST1926. Resistant NCI-H460 cells were subculture for 3-4 times before increasing ST1926 concentration to 4 μM (20×IC50). Survived cells were seeded in 96-well plates to isolate resistant cells clones and maintained in complete medium with 4 μM of ST1926. The tumour cell line was maintained at least for one week, before seeding for SRB cytotoxicity assay, in drug-free medium.
To evaluate the effect of the compound on survival cells, the sulphorodamine B test was used. […]

Test [5] deals with HCT-116 human colon carcinoma cells. The test is described as follows: Sulphorodamine B cytotoxicity test on HCT-116 cells. The class given is cell-based. As to conditions: Homo sapiens, Table 2, SRB, read-out: IC50 ± SD, HCT-116.
Excerpt: as §3, §1, §2

Test [6] deals with IGROV-1 (sensitive ovarian carcinoma cells). Description: Sulphorodamine B cytotoxicity test on IGROV-1 cells. The class given is cell-based. To be noted: read-out: IC50 ± SD, IGROV-1.
Excerpt: as §3, §1, §2

The subject of test [7] is IGROV-1/Pt (platinum-resistant ovarian carcinoma cells). The test is described as follows: Sulphorodamine B cytotoxicity test on IGROV-1/Pt cells. It is filed as cell-based. To be noted: read-out: IC50 ± SD, IGROV-1/Pt.
Excerpt: as §3, §1, §2

Where [8] appears, read: Homo sapiens, NCI-H460, Table 3, sensitive NCI-H460.
[9] abbreviates: Homo sapiens, NB-4, Table 4, NB4 tumour cells, compound alone, read-out: IC50 (μM ± SD).
Setting [10] is: Homo sapiens, NCI-H460, Table 2, NCI-H460.
Setting [11] is: Homo sapiens, NB-4, Table 1, NB4, 24 h treatment, 48 h recovery, SRB, read-out: IC50 ± SD, NB4.
[12] abbreviates: Table 4, NB4 tumour cells, compound alone, read-out: IC50 (μM ± SD).

As for `O=C(O)c1ccc2cc(-c3ccc(O)c(C45CC6CC(CC(C6)C4)C5)c3)ccc2c1` [ST1964, 6-[3′-(1-adamantyl)-4′-hydroxyphenyl]-2-naphthalenecarboxylic acid, reference compound], in test [1], the “Differentiation AC50” value was “no differentiation”. The IC50 in test [2] (setting [8]) stood at 0.37 ± 0.02 µM; in test [3] (setting [9]), 0.4 ± 0.05 µM; in test [4] (Homo sapiens) it was 12.7 ± 0.7 µM. In addition, the “RI (resistance index)” value in test [4] turned out to be 34.

Turning to `COc1ccc(-c2ccc(/C=C/C(=O)NO)cc2)cc1C12CC3CC(CC(C3)C1)C2` [ST3056, E-3-(3′-Adamantan-1-yl-4′-methoxy-biphenyl-4-yl)-N-hydroxy-acrylamide], the IC50 in test [5] was 1.3 ± 0.1 µM; in test [2] (setting [10]) it was 0.62 ± 0.04 µM; in test [2] (setting [8]), 0.62 ± 0.04 µM; in test [6] (Homo sapiens, Table 1, SRB), 0.96 ± 0.03 µM; in test [3] (setting [11]) it was 0.6 ± 0.05 µM; in test [4] (Homo sapiens), 1.2 ± 0.04 µM. The IC50 in test [7] (Homo sapiens, Table 1, SRB) was found to be 1.79 ± 0.07 µM. Besides, in test [4], the “overcoming of resistance on H460/R9A” value is listed as “completely overcame the resistance”. Also, the “RI (resistance index)” value in test [4] was determined as 1.9.

Take `O=C(C=Cc1ccc(-c2cc3c(c(C45CC6CC(CC(C6)C4)C5)c2)OCCO3)cc1)NO` [ST3081, 3-[4-(8-Adamantan-1-yl-2,3-dihydro-benzo[1,4]dioxin-6-yl)-phenyl]-N-hydroxy-acrylamide]: the IC50 turned out to be 2.55 ± 0.03 µM in test [5]; 1 ± 0.04 µM in test [2] (setting [10]); 1.48 ± 0.19 µM in test [2] (setting [8]); 1.22 ± 0.04 µM in test [6] (Homo sapiens, Table 2, SRB); 1.39 ± 0.14 µM in test [4] (Homo sapiens); 0.84 ± 0.02 µM in test [7] (Homo sapiens, Table 2, SRB). Besides, the “overcoming of resistance on H460/R9A” value in test [4] was “the same characteristic are retained”. Further, in test [4], the “RI (resistance index)” value is reported as 0.94.

With `O=C(O)/C=C/c1ccc(-c2ccc(O)c(C34CC5CC(CC(C5)C3)C4)c2)cc1` [ST1926, E-3-(4′-hydroxy-3′-adamantylbiphenyl-4-yl)acrylic acid, reference compound], the “Differentiation AC50” value in test [1] is reported as “no differentiation”. Besides, the IC50 in test [2] (Table 3, sensitive NCI-H460) is 0.13 ± 0.01 µM; in test [3] (setting [12]) it was 0.082 ± 0.005 µM; in test [4] it was 10.1 ± 0.7 µM. The “RI (resistance index)” value in test [4] is listed as 77.7.

Consider `O=C(/C=C/c1ccc(-c2ccc(O)c(C34CC5CC(CC(C5)C3)C4)c2)c(Cl)c1)NO` [ST3088, E-3-(3′-Adamantan-1-yl-2-chloro-4′-hydroxy-biphenyl-4-yl)-N-hydroxy-acrylamide], for which the IC50 in test [5] was determined as 5.4 ± 0.9 µM; in test [2] (setting [10]), 5.4 ± 0.3 µM; in test [2] (setting [8]), 5.4 ± 0.3 µM; in test [6] (Homo sapiens, Table 2, SRB) it was 1.34 ± 0.04 µM; in test [4] (Homo sapiens) it was 7.5 ± 0.1 µM; in test [7] (Homo sapiens, Table 2, SRB), 1.61 ± 0.1 µM. Besides, the “overcoming of resistance on H460/R9A” value in test [4] was “the same characteristic are retained”. For the same compound, in test [4], the “RI (resistance index)” value was found to be 1.4.

For `CN(C)c1ccc(-c2ccc(/C=C/C(=O)NO)cc2)cc1` [ST3444, E-3-[4′-dimethylaminobiphenyl-4-yl]-N-hydroxy-acrylamide, reference compound], the “Differentiation AC50” value in test [1] was “no differentiation”. In addition, in test [3] (setting [9]), the IC50 stood at 0.86 ± 0.05 µM.

`COc1ccc(-c2ccc(/C=C/C(=O)O)cc2)cc1C12CC3CC(CC(C3)C1)C2` [ST1898, reference compound]: the IC50 in test [2] (Table 3, sensitive NCI-H460) turned out to be 1.2 ± 0.02 µM; in test [6] (Table 1, SRB) it was 1.19 ± 0.05 µM; in test [3] (Table 1, NB4, 24 h treatment, 48 h recovery, SRB, read-out: IC50 ± SD, NB4), 1.1 ± 0.07 µM; in test [4], 64.4 ± 5 µM; in test [7] (Table 1, SRB) it was 1.43 ± 0.05 µM. In test [4], the “RI (resistance index)” value was determined as 53.6.

Turning to `O=C(O)/C=C/c1ccc(-c2ccc(O)cc2)cc1` [ST2188, E-4-(4-hydroxyphenyl)cinnamic acid, reference compound], the IC50 was determined as 89 ± 11 µM in test [6] (Homo sapiens, Table 1, SRB); 78.7 ± 7.4 µM in test [3] (setting [11]); 156 ± 2 µM in test [7] (Homo sapiens, Table 1, SRB).

With “E,E-5-biphenylyl-pentadienoic acid N-hydroxyamide [ST3400, reference compound]”, the “Differentiation AC50” value in test [1] is listed as “no differentiation”. Also, in test [3] (setting [12]), the IC50 was 0.66 ± 0.003 µM.

`O=C(/C=C/c1ccc(-c2ccccc2)cc1)NO` [ST3256, E-3-(biphenyl-4-yl)-N-hydroxy-acrylamide, reference compound]: in test [1], the “Differentiation AC50” value is “no differentiation”. Besides, the IC50 in test [3] (setting [9]) is 0.9 ± 0.1 µM.
